Assays:
[1] = ESPS-2; compared with low-dose aspirin / aspirin alone; cited from earlier work
[2] = local formation of fibrin in experimental animals after angioplasty; assay type: in vivo
[3] = arterial circulation of the brain, rabbit model; cited from earlier work
activated platelets = experiment: Annexin V binding after incubation of cells with DIP; assay type: cell-based

OCCN(CCO)c1nc(N2CCCCC2)c2nc(N(CCO)CCO)nc(N3CCCCC3)c2n1 [dipyridamole, 2,6-bis(diethanolamino)-4,8-dipiperidino-pyrimido[5,4-d]pyrimidine]
reduction of stroke risk [1]: as effective as low-dose aspirin | inhibition of fibrin formation versus full dose heparin ([2]; experimental animals after angioplasty): exceeds the level of inhibition by full dose anticoagulant treatment with heparin | local formation of fibrin ([2]; pretreatment, arterial tree, high flow rate): reduces the local formation of fibrin significantly | thrombus formation [3]: reduce thrombus formation | binding of Annexin V to the surface of activated platelets (activated platelets; activated platelets): reduce the binding of Annexin V | Annexin V binding sites (activated platelets; incubation of cells, compared to pre-incubation, patients with anti-platelet therapy resistance (ASA or clopidogrel)): significant reduction
